According to paper PMC6364417, “Kinase inhibitor library screening identifies synergistic drug combinations effective in sensitive and resistant melanoma cells” (Journal of Experimental & Clinical Cancer Research : CR, 2019):

What was measured:
Assay in all cases: Kinase inhibitor library screening, PrestoBlue cell viability, 1 or 10 μM, 72 h
[1] = tested on: 501Mel-GP cells (Dabrafenib-resistant); settings: 501Mel GP, 72 h
A375 cells (parental) = settings: A375 Parental, 72 h
[2] = tested on: IGR37-GP cells (Dabrafenib-resistant); settings: IGR37 GP, 72 h
[3] = tested on: IGR37-XP cells (Vemurafenib-resistant); settings: IGR37 XP, 72 h
[4] = tested on: 501Mel-XP cells (Vemurafenib-resistant); settings: 501Mel XP, 72 h
501Mel cells (parental) = settings: 501Mel Parental, 72 h
Method in brief: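 Readout: PrestoBlue signal on a monochromator plate reader, given as percent viability relative to untreated controls. Parental and drug-resistant (Vemurafenib XP, Dabrafenib GP) sublines were tested; at least duplicates per line.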

IGR37 cells (parental) = settings: IGR37 Parental, 72 h
[5] = tested on: A375-GP cells (Dabrafenib-resistant); settings: A375 GP, 72 h
[6] = tested on: A375-XP cells (Vemurafenib-resistant); settings: A375 XP, 72 h

With `COc1cc2ncnc(Nc3ccc(F)c(Cl)c3)c2cc1NC(=O)/C=C/CN1CCCCC1` [Dacomitinib (PF299804,PF-00299804)] the “cell viability, 501Mel GP, 1μΜ” value ([1]; 1μΜ, in %) was 106.7, the “cell viability, 501Mel GP, 10μΜ” value ([1]; 10μΜ, in %) was -0.4 and the “cell viability, A375 Parental, 1μΜ” value (A375 cells (parental); 1μΜ, in %) was 94.4. For the same compound, the “cell viability, A375 Parental, 10μΜ” value (A375 cells (parental); 10μΜ, in %) was 3.4, the cell viability, IGR37 GP, 10μΜ ([2]; 10μΜ) was 2.6% and the cell viability, IGR37 XP, 10μΜ ([3]; 10μΜ) was 1.3%. For the same compound, the “cell viability, IGR37 XP, 1μΜ” value ([3]; 1μΜ, in %) was 80.1, the “cell viability, 501Mel XP, 10μΜ” value ([4]; 10μΜ, in %) was -0.2 and the “cell viability, 501Mel Parental, 10μΜ” value (501Mel cells (parental); 10μΜ, in %) was 0.5. The “cell viability, IGR37 Parental, 10μΜ” value (IGR37 cells (parental); 10μΜ, in %) was 1.1, the “cell viability, A375 GP, 1μΜ” value ([5]; 1μΜ, in %) was 97.2 and the “cell viability, A375 GP, 10μΜ” value ([5]; 10μΜ, in %) was 1.9. The “cell viability, A375 XP, 1μΜ” value ([6]; 1μΜ, in %) was 96.8 and the “cell viability, A375 XP, 10μΜ” value ([6]; 10μΜ, in %) was 1.1.
With `CC(=O)c1c(C)c2cnc(Nc3ccc(N4CCNCC4)cn3)nc2n(C2CCCC2)c1=O.Cl` [PD 0332991 (Palbociclib) HCl] the “cell viability (kinase inhibitor library screening)” value ([1]; 1μΜ) was 83.8%, the “cell viability (kinase inhibitor library screening)” value ([1]; 10μΜ) was 66.3% and the “cell viability (kinase inhibitor library screening)” value (A375 cells (parental); 10μΜ) was 59.1%. The “cell viability (kinase inhibitor library screening)” value (A375 cells (parental); 1μΜ) was 78.9%, the “cell viability (kinase inhibitor library screening)” value ([2]; 10μΜ) was 78.0% and the “cell viability (kinase inhibitor library screening)” value ([3]; 1μΜ) was 98.1%. For the same compound, the “cell viability (kinase inhibitor library screening)” value ([3]; 10μΜ) was 28.9%, the “cell viability (kinase inhibitor library screening)” value ([4]; 1μΜ) was 76.9% and the “cell viability (kinase inhibitor library screening)” value ([4]; 10μΜ) was 25.1%. The “cell viability (kinase inhibitor library screening)” value (501Mel cells (parental); 1μΜ) was 89.7%, the “cell viability (kinase inhibitor library screening)” value (501Mel cells (parental); 10μΜ) was 80.1% and the “cell viability (kinase inhibitor library screening)” value (IGR37 cells (parental); 1μΜ) was 96.5%. For the same compound, the “cell viability (kinase inhibitor library screening)” value ([5]; 1μΜ) was 77.9%, the “cell viability (kinase inhibitor library screening)” value ([5]; 10μΜ) was 57.2% and the “cell viability (kinase inhibitor library screening)” value ([6]; 1μΜ) was 74.5%. For the same compound, the “cell viability (kinase inhibitor library screening)” value ([6]; 10μΜ) was 63.1%.
With `S=C(NCc1ccc2c(c1)OCO2)N1CCN(c2ncnc3c2oc2ccccc23)CC1` [Amuvatinib (MP-470)] the “cell viability (kinase inhibitor library screening)” value ([1]; 1μΜ) was 105.2%, the “cell viability (kinase inhibitor library screening)” value ([1]; 10μΜ) was 86.9% and the “cell viability (kinase inhibitor library screening)” value (A375 cells (parental); 10μΜ) was 84.8%. The “cell viability (kinase inhibitor library screening)” value (A375 cells (parental); 1μΜ) was 97.4%, the “cell viability (kinase inhibitor library screening)” value ([2]; 1μΜ) was 94.7% and the “cell viability (kinase inhibitor library screening)” value ([2]; 10μΜ) was 95.7%. For the same compound, the “cell viability (kinase inhibitor library screening)” value ([3]; 10μΜ) was 77.9%, the “cell viability (kinase inhibitor library screening)” value ([4]; 1μΜ) was 100.3% and the “cell viability (kinase inhibitor library screening)” value ([4]; 10μΜ) was 88.3%. The “cell viability (kinase inhibitor library screening)” value (501Mel cells (parental); 1μΜ) was 98.9%, the “cell viability (kinase inhibitor library screening)” value (501Mel cells (parental); 10μΜ) was 98.9% and the “cell viability (kinase inhibitor library screening)” value (IGR37 cells (parental); 1μΜ) was 95.9%. The “cell viability (kinase inhibitor library screening)” value (IGR37 cells (parental); 10μΜ) was 97.0%, the “cell viability (kinase inhibitor library screening)” value ([5]; 1μΜ) was 95.9% and the “cell viability (kinase inhibitor library screening)” value ([5]; 10μΜ) was 84.4%. For the same compound, the “cell viability (kinase inhibitor library screening)” value ([6]; 1μΜ) was 104.7% and the “cell viability (kinase inhibitor library screening)” value ([6]; 10μΜ) was 94.9%.
For `Nc1ccc(-c2ccc3ncc4ccc(=O)n(-c5cccc(C(F)(F)F)c5)c4c3c2)cn1` [Torin 2], the “Cell viability in kinase inhibitor library screening, 501Mel GP, 1μΜ” value ([1]; 1μΜ, in %) was 10.9, the “Cell viability in kinase inhibitor library screening, 501Mel GP, 10μΜ” value ([1]; 10μΜ, in %) was 0.7 and the “Cell viability in kinase inhibitor library screening, A375 Parental, 10μΜ” value (A375 cells (parental); 10μΜ) was 3.6. The “Cell viability in kinase inhibitor library screening, A375 Parental, 1μΜ” value (A375 cells (parental); 1μΜ) was 10.7, the Cell viability in kinase inhibitor library screening, IGR37 GP, 10μΜ ([2]; 10μΜ) was 2.7% and the “Cell viability in kinase inhibitor library screening, IGR37 GP, 1μΜ” value ([2]; 1μΜ, in %) was 20.7. For the same compound, the Cell viability in kinase inhibitor library screening, IGR37 XP, 10μΜ ([3]; 10μΜ) was 1.3%, the “Cell viability in kinase inhibitor library screening, IGR37 XP, 1μΜ” value ([3]; 1μΜ, in %) was 14.1 and the “Cell viability in kinase inhibitor library screening, 501Mel XP, 1μΜ” value ([4]; 1μΜ, in %) was 3.5. For the same compound, the “Cell viability in kinase inhibitor library screening, 501Mel XP, 10μΜ” value ([4]; 10μΜ, in %) was 0.164, the “Cell viability in kinase inhibitor library screening, 501Mel Parental, 1μΜ” value (501Mel cells (parental); 1μΜ, in %) was 5.6 and the “Cell viability in kinase inhibitor library screening, 501Mel Parental, 10μΜ” value (501Mel cells (parental); 10μΜ, in %) was 0.8. For the same compound, the “Cell viability in kinase inhibitor library screening, IGR37 Parental, 1μΜ” value (IGR37 cells (parental); 1μΜ, in %) was 13.2, the “Cell viability in kinase inhibitor library screening, IGR37 Parental, 10μΜ” value (IGR37 cells (parental); 10μΜ, in %) was 0.851 and the “Cell viability in kinase inhibitor library screening, A375 GP, 1μΜ” value ([5]; 1μΜ) was 7.9. For the same compound, the “Cell viability in kinase inhibitor library screening, A375 GP, 10μΜ” value ([5]; 10μΜ) was 4.0, the “Cell viability in kinase inhibitor library screening, A375 XP, 1μΜ” value ([6]; 1μΜ) was 12.1 and the “Cell viability in kinase inhibitor library screening, A375 XP, 10μΜ” value ([6]; 10μΜ) was 2.9.
